# Reference: US5962502A, “Polyamidic acid derivatives with antigastrin activity, a method for their preparation, and their pharmaceutical use” (priority 1993, dated 1999)
# Assays:
# CCK-A = target: T1, CCK-A (Cavia porcellus, UniProt Q63931); assay: Anti-CCK-A activity on guinea-pig gall bladder stimulated in vitro by CCK-8; settings: for Ratio I/II (CCK-A IC50 / CCK-B IC50): gall bladder IC50 over gastric mucous cells IC50; for IC50: guinea-pig gall bladder in vitro, CCK-8 10 ng/ml, read-out: CCK-A-antagonistic activity IC50 (I)
# T1 construct: A longitudinal strip of guinea-pig gall-bladder was put in a bath for isolated organs; from tissue; host or cells: guinea-pig gall bladder longitudinal strip
# T1 sequence (Q63931 1-430): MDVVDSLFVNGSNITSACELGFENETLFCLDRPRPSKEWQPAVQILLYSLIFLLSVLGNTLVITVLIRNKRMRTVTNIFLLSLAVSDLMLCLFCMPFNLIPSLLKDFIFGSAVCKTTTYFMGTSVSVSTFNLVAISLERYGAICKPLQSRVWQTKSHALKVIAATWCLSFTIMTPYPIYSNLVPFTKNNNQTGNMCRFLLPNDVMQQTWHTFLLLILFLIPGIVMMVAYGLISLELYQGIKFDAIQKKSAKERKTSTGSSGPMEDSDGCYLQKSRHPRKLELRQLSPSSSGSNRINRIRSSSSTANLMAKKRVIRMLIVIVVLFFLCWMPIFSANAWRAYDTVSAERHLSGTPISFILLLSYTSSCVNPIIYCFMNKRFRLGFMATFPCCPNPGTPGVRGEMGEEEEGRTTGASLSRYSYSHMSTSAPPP
# Method: The experimental model used was guinea-pig gall bladder stimulated in vitro by CCK-8, with the use of lorglumide as the reference standard. A longitudinal strip of guinea-pig gall-bladder was put in a bath for isolated organs in the presence of Krebs buffer at a temperature of 32° C., with continuous oxygenation with an oxygen-CO2 mixture (95-[…]). The isometric contractions were detected by means of a force transducer and recorded.
# mouse = assay: Black and White Box test in the mouse (anxiolytic activity); type: in vivo; settings: for LIGHT TIME TOTAL TIME / LIGHT-DARK MOVEMENTS / MOV. DARK % TOTAL MOV. / TOTAL MOVEMENTS: 5 minutes; for anxiolytic activity, result in words: Black and White Box test, IP; for increase in the number of light-dark movements in comparison with the controls: summary over doses
smiles,measurement,setting,value
"O=C(CC[C@@H](NC(=O)c1cc(Cl)cc(Cl)c1)C(=O)N1CCC2(CCCC2)CC1)N[C@H](Cc1ccccc1)C(=O)O [Compound 9, (R,R)-1[(1-carboxy-2-phenylethyl)amino]-1 oxo-5-(8-azaspiro[4.5]decan-8-yl)-4-(3,5-dichloro-benzoylamino)-5-oxopentanoic acid]",Ratio I/II (CCK-A IC50 / CCK-B IC50),CCK-A,108
same,IC50,CCK-A,5.4 µM
same,EFF. % VS CONTROL (LIGHT TIME TOTAL TIME),mouse; 0.1 mg/kg IP,17%
same,EFF. % VS CONTROL (LIGHT-DARK MOVEMENTS),mouse; 0.1 mg/kg IP,6%
same,EFF. % VS CONTROL (MOV. DARK % TOTAL MOV.),mouse; 0.1 mg/kg IP,0%
same,LIGHT TIME TOTAL TIME,mouse; 0.1 mg/kg IP,31.0%
same,LIGHT-DARK MOVEMENTS,mouse; 0.1 mg/kg IP,16.1
same,MOV. DARK % TOTAL MOV.,mouse; 0.1 mg/kg IP,59%
same,TOTAL MOVEMENTS,mouse; 0.1 mg/kg IP,505
same,EFF. % VS CONTROL (LIGHT TIME TOTAL TIME),mouse; 1.0 mg/kg IP,36%
same,EFF. % VS CONTROL (LIGHT-DARK MOVEMENTS),mouse; 1.0 mg/kg IP,31%
same,EFF. % VS CONTROL (MOV. DARK % TOTAL MOV.),mouse; 1.0 mg/kg IP,-7%
same,LIGHT TIME TOTAL TIME,mouse; 1.0 mg/kg IP,36.1%
same,LIGHT-DARK MOVEMENTS,mouse; 1.0 mg/kg IP,19.9
same,MOV. DARK % TOTAL MOV.,mouse; 1.0 mg/kg IP,55%
same,TOTAL MOVEMENTS,mouse; 1.0 mg/kg IP,493
same,EFF. % VS CONTROL (LIGHT TIME TOTAL TIME),mouse; 10.0 mg/kg IP,26%
same,EFF. % VS CONTROL (LIGHT-DARK MOVEMENTS),mouse; 10.0 mg/kg IP,16%
same,EFF. % VS CONTROL (MOV. DARK % TOTAL MOV.),mouse; 10.0 mg/kg IP,-7%
same,LIGHT TIME TOTAL TIME,mouse; 10.0 mg/kg IP,33.5%
same,LIGHT-DARK MOVEMENTS,mouse; 10.0 mg/kg IP,17.7
same,MOV. DARK % TOTAL MOV.,mouse; 10.0 mg/kg IP,55%
same,TOTAL MOVEMENTS,mouse; 10.0 mg/kg IP,503
same,"anxiolytic activity, result in words",mouse,anxiolytic activity without sedative activity
same,increase in the number of light-dark movements in comparison with the controls,mouse,20-30%
O=C(CC[C@@H](NC(=O)c1cc(Cl)cc(Cl)c1)C(=O)N1CCC2(CCCC2)CC1)N[C@H](Cc1c[nH]c2ccccc12)C(=O)O [Compound 21],Ratio I/II (CCK-A IC50 / CCK-B IC50),CCK-A,940
same,IC50,CCK-A,9.4 µM
same,EFF. % VS CONTROL (LIGHT TIME TOTAL TIME),mouse; 0.03 mg/kg IP,11%
same,EFF. % VS CONTROL (LIGHT-DARK MOVEMENTS),mouse; 0.03 mg/kg IP,26%
same,EFF. % VS CONTROL (MOV. DARK % TOTAL MOV.),mouse; 0.03 mg/kg IP,-6%
same,LIGHT TIME TOTAL TIME,mouse; 0.03 mg/kg IP,28.9%
same,LIGHT-DARK MOVEMENTS,mouse; 0.03 mg/kg IP,18.2
same,MOV. DARK % TOTAL MOV.,mouse; 0.03 mg/kg IP,62%
same,TOTAL MOVEMENTS,mouse; 0.03 mg/kg IP,522
same,EFF. % VS CONTROL (LIGHT TIME TOTAL TIME),mouse; 0.3 mg/kg IP,30%
same,EFF. % VS CONTROL (LIGHT-DARK MOVEMENTS),mouse; 0.3 mg/kg IP,37%
same,EFF. % VS CONTROL (MOV. DARK % TOTAL MOV.),mouse; 0.3 mg/kg IP,-1.1%
same,LIGHT TIME TOTAL TIME,mouse; 0.3 mg/kg IP,33.9%
same,LIGHT-DARK MOVEMENTS,mouse; 0.3 mg/kg IP,19.8
same,MOV. DARK % TOTAL MOV.,mouse; 0.3 mg/kg IP,57%
same,TOTAL MOVEMENTS,mouse; 0.3 mg/kg IP,499
same,EFF. % VS CONTROL (LIGHT TIME TOTAL TIME),mouse; 3.0 mg/kg IP,24%
same,EFF. % VS CONTROL (LIGHT-DARK MOVEMENTS),mouse; 3.0 mg/kg IP,26%
same,EFF. % VS CONTROL (MOV. DARK % TOTAL MOV.),mouse; 3.0 mg/kg IP,-9%
same,LIGHT TIME TOTAL TIME,mouse; 3.0 mg/kg IP,32.4%
same,LIGHT-DARK MOVEMENTS,mouse; 3.0 mg/kg IP,18.2
same,MOV. DARK % TOTAL MOV.,mouse; 3.0 mg/kg IP,60%
same,TOTAL MOVEMENTS,mouse; 3.0 mg/kg IP,495
same,"anxiolytic activity, result in words",mouse,anxiolytic activity without sedative activity
same,increase in the number of light-dark movements in comparison with the controls,mouse,20-30%
